Measured values as given in patent US11311533B2, “Opioid receptor antagonist conjugate and use thereof” (SHANGHAI HANMAI BIO-PHARMA CO., LTD., priority 2016, dated 2022).
Values joined by “and” are separate entries in the source; they are usually repeats but may differ in a detail not shown here. Equal values may be shown once. Where a name gives a salt, the structure may show the parent alone. Read-outs that look alike come from different tables or passages of the source.

Key:
[1] = target: T1, OPRM1 (Mμ opioid receptor gene) receptor (Homo sapiens, UniProt P35372); test: cell-based; conditions: for inhibition at 10 µM: OPRM1, read-out: Inhibition rate (%) of highest concentration (mean ± standard deviation) (N = 2)
Method: (§1) Cell suspension was inoculated into a 384-well microplate at a density of 15,000 cells per well, and cultured in a 37° C./5% CO2 incubator for at least 18 hours before experiment.
(§2) Before the test, the conjugates to be tested was diluted with HBSS buffer (containing 20 mM HEPES) and prepared as 5× solution with a concentration five times of the test solution. […] The concentration of the corresponding control DMSO is 0.1%.
(§3) The protocol for preparing agonist detection: cells were inoculated into 384-well microplates, 20 μl of cell suspension per well (containing 15,000 cells); the plate was placed in 37° C./5% CO2 incubator to continue the culture; cells were taken out after 18 hours, and dye was added, 20 μl per well; the plate was incubated in 37° C./5% CO2 incubator for 1 hour and equilibrated at room temperature for 15 minutes; and 10 μl of 5× test solution of agonist was added to each well for RFU value detection.
(§4) The protocol for preparing inhibitor detection: cells were inoculated into 384-well microplates, 20 μl of cell suspension per well (containing 15,000 cells); the plate was placed in 37° C./5% CO2 incubator to continue the culture; cells were taken out after 18 hours; for the inhibitor detection, 20 μl of dye was added to the plate, and then 10 μl of prepared conjugate solution was added; the plate was incubated in 37° C./5% CO2 for 1 hour and equilibrate at room temperature for 15 minutes; 12.5 μl of 5× EC80 positive agonist was added for RFU value detection.
(§5) The 384-well microplate containing the conjugate solution (5× test concentration), cell plate and pipette tip box were placed in FLIPR (Molecule Devices), and the agonist detection program was run. The overall detection time of the instrument was 120 seconds. 10 μl of agonist was automatically added to the plate at the 21st second. […] (Molecule Devices), and the inhibitor detection program was run. The overall detection time of the instrument was 120 seconds. 12.5 μl of positive agonist was automatically added to the plate at the 21st second.

mice [2] = test: Mouse hot plate analgesia experiment (antagonism of morphine analgesia, blood-brain barrier study); conditions: for Average Pain Threshold after Administration (s) Mean ± SD: 60 minutes after administration; for Difference between the pain threshold before and after administration (significance): before vs 60 minutes after administration, Na1037 and Na1041: high-dose groups; for Passage through the blood-brain barrier (concluded from antagonism of the analgesic effect of morphine): mouse hot plate, conjugate subcutaneous after morphine by gavage
Method: Six conjugates Na1021, Na1029, Na1045, Na1037, Na1041, and Na1049 were subjected to mouse hot plate analgesia experiments for four times, respectively. In each experiment, mice (JOINN Laboratories (Suzhou)) were randomly divided into four groups (eight per group): one blank control group, one morphine control group, and two other groups which were administered with morphine by gavage first, and then low dose and high dose of the conjugates were subcutaneously injected respectively. The mice were put on a hot plate (55±0.1) ° C. before administration, and the time was recorded immediately. The duration from the beginning on the hot plate to the first hind paw licking was recorded as the reaction time of heat-pain sensation (i.e., pain threshold, the unit is second (s)). The pain threshold was set as 100% analgesia if there was no hind paw licking in 60 seconds. It was recorded as 60 seconds when the time exceeded 60 seconds to prevent burn of foot. The mice were again put on a (55±0.1) ° C. hot plate 60 minutes after the administration of drug and the reaction time of heat-pain sensation was recorded. […] The value of the pain thresholds before and after administration was compared and the percentage of increase in pain threshold was calculated according to the following formula to determine the effect of drug on antagonizing morphine analgesia. Percentage of increase in pain threshold=[(average heat pain threshold after administration−average pain threshold before administration)/average pain threshold before administration]×100%

mice [3] = test: Anti-constipation study: antagonizing the antidiarrheal effect of loperamide hydrochloride (castor oil diarrhea); assay type: in vivo
Method: The anti-constipation study experiment was completed by using the test of antagonizing the antidiarrheal effect of loperamide hydrochloride. The specific experiment process was: the mice were divided into groups randomly, eight mice each group, wherein one group was administered with 0.5 mL of castor oil by gavage, one group was administered with 2 mg/kg loperamide hydrochloride and 0.5 mL of castor oil by gavage, and conjugate test groups were respectively administered with Na1021 (300 nmol/kg), Na1029 (300 nmol/kg), Na1033 (300 nmol/kg) and Na1045 (600 nmol/kg) by gavage first, and then with 2 mg/kg loperamide and 0.5 mL castor oil by gavage.
The mice were divided into groups randomly, eight mice each group, wherein one group was administered with 0.5 mL of castor oil by gavage, one group was administered with 2 mg/kg loperamide and 0.5 mL castor oil by gavage, other groups were respectively administered with different doses of conjugate Na1029 first, then with 2 mg/kg loperamide hydrochloride and 0.5 mL castor oil by gavage.

[4] = target: T1, OPRM1 (Mμ opioid receptor gene) receptor
Method: as §1, §2, §3, §4, §5

[5] = 4 μmol/kg subcutaneous + Morphine by gavage
[6] = 20 μmol/kg subcutaneous + Morphine by gavage
[7] = Table 11: 500 μg/kg + Loperamide Hydrochloride + Castor Oil
[8] = Table 10: 300 nmol/kg by gavage + Loperamide Hydrochloride + Castor Oil

T1 sequence (P35372 whole entry): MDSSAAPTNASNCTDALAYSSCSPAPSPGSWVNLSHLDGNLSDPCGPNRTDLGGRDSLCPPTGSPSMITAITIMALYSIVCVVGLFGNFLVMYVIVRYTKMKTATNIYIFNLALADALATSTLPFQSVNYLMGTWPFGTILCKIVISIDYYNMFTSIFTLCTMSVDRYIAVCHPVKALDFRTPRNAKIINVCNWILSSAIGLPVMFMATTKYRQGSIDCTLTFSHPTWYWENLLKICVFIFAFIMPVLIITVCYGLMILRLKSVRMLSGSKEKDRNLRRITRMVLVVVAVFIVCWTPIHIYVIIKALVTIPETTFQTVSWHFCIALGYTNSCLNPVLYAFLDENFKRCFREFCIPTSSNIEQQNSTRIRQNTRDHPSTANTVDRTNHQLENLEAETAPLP

Oc1ccc2c3c1O[C@H]1[C@@H](OCCOCCOCCO[C@H]4CC[C@@]5(O)[C@H]6Cc7ccc(O)c8c7[C@@]5(CCN6CC5CC5)[C@H]4O8)CC[C@@]4(O)[C@@H](C2)N(CC2CC2)CC[C@]314 [Nal053, PEG3-(6-α-naltrexol)2-ether]
IC50 [1]: 250 nM | inhibition at 10 µM [1]: 101.8 ± 0.97%

COCCOCCOCCOCCOCCOCCOCCOCCO[C@H]1CC[C@@]2(O)[C@H]3Cc4ccc(O)c5c4[C@@]2(CCN3CC2CC2)[C@H]1O5 [Nal041, mPEG8-(6-α-naltrexol)-ether]
IC50 [1]: 210 nM | inhibition at 10 µM [1]: 95.8 ± 1.86% | Average Pain Threshold before Administration (s) Mean ± SD (mice [2]; 4 μmol/kg + Morphine group): 14.25 ± 1.75 s | Percentage of Increase in Pain Threshold (mice [2]; 4 μmol/kg + morphine): 170.18% | Average Pain Threshold after Administration (s) Mean ± SD (mice [2]; [5]): 38.5 ± 14.74 s | Average Pain Threshold before Administration (s) Mean ± SD (mice [2]; 20 μmol/kg + Morphine group): 16.88 ± 6.79 s | Percentage of Increase in Pain Threshold (mice [2]; 20 μmol/kg + morphine): 30.33% | Average Pain Threshold after Administration (s) Mean ± SD (mice [2]; [6]): 22.00 ± 5.12 s | Difference between the pain threshold before and after administration (significance) (mice [2]): not significant | Passage through the blood-brain barrier (concluded from antagonism of the analgesic effect of morphine) (mice [2]): can pass through the blood-brain barrier

O=C1CC[C@@]2(O)[C@H]3Cc4ccc(O)c5c4[C@@]2(CCN3CC2CC2)[C@H]1O5 [Naltrexone, naltrexone, reference compound]
Total Number of Diarrhea Times Six Hours after Administration (mice [3]; [7]): 14.00 ± 5.76

CN(C)C(=O)C(CCN1CCC(O)(c2ccc(Cl)cc2)CC1)(c1ccccc1)c1ccccc1 [Loperamide Hydrochloride, loperamide hydrochloride, reference compound]
Total Number of Diarrhea Times Six Hours after Administration (mice [3]; Table 10: 2 mg/kg loperamide hydrochloride + 0.5 mL castor oil by gavage, no conjugate): 10.88 ± 7.14 | Total Number of Diarrhea Times Six Hours after Administration (mice [3]; Table 11: 2 mg/kg loperamide + 0.5 mL castor oil by gavage, no conjugate): 5.75 ± 3.69

Oc1ccc2c3c1O[C@H]1[C@@H](OCCOCCOCCOCCOCCOCCO[C@H]4CC[C@@]5(O)[C@H]6Cc7ccc(O)c8c7[C@@]5(CCN6CC5CC5)[C@H]4O8)CC[C@@]4(O)[C@@H](C2)N(CC2CC2)CC[C@]314 [Nal025, PEG6-(6-α-naltrexol)2-ether]
IC50 [1]: 185 nM | inhibition at 10 µM [1]: 100.6 ± 0.48%

Oc1ccc2c3c1O[C@H]1[C@@H](OCCOCCOCCOCCOCCOCCOCCOCCOCCOCCO[C@H]4CC[C@@]5(O)[C@H]6Cc7ccc(O)c8c7[C@@]5(CCN6CC5CC5)[C@H]4O8)CC[C@@]4(O)[C@@H](C2)N(CC2CC2)CC[C@]314 [Nal033, PEG10-(6-α-naltrexol)2-ether]
IC50 [1]: 197 nM | inhibition at 10 µM [1]: 99.1 ± 1% | Total Number of Diarrhea Times Six Hours after Administration (mice [3]; [8]): 15.25 ± 4.13

Oc1ccc2c3c1O[C@H]1[C@@H](OCCOCCOCCOCCOCCOCCOCCOCCO[C@H]4CC[C@@]5(O)[C@H]6Cc7ccc(O)c8c7[C@@]5(CCN6CC5CC5)[C@H]4O8)CC[C@@]4(O)[C@@H](C2)N(CC2CC2)CC[C@]314 [Nal029, PEG8-(6-α-naltrexol)2-ether]
IC50 [1]: 161 nM | inhibition at 10 µM [1]: 98 ± 3.09% | Average Pain Threshold before Administration (s) Mean ± SD (mice [2]; 3.66 μmol/kg + Morphine group): 20.00 ± 5.71 s | Percentage of Increase in Pain Threshold (mice [2]; 3.66 μmol/kg + morphine): 200.00% | Average Pain Threshold after Administration (s) Mean ± SD (mice [2]; 3.66 μmol/kg subcutaneous + Morphine by gavage): 60.00 ± 0 s | Average Pain Threshold before Administration (s) Mean ± SD (mice [2]; 18.28 μmol/kg + Morphine group): 22.13 ± 7.26 s | Percentage of Increase in Pain Threshold (mice [2]; 18.28 μmol/kg + morphine): 155.31% | Average Pain Threshold after Administration (s) Mean ± SD (mice [2]; 18.28 μmol/kg subcutaneous + Morphine by gavage): 56.5 ± 9.90 s | Passage through the blood-brain barrier (concluded from antagonism of the analgesic effect of morphine) (mice [2]): cannot pass through the blood-brain barrier | Antagonism of the antidiarrheal effect of loperamide hydrochloride compared with the model control group (mice [3]; Example 9, dose-dependent): significantly antagonize | Total Number of Diarrhea Times Six Hours after Administration (mice [3]; [8]): 20.88 ± 5.82 | Total Number of Diarrhea Times Six Hours after Administration (mice [3]; Table 10: 300 nmol/kg by gavage + Loperamide Hydrochloride + Castor Oil, listed as Na1029): relatively high | Total Number of Diarrhea Times Six Hours after Administration (mice [3]; Table 11: 10 μg/kg + Loperamide Hydrochloride + Castor Oil): 5.25 ± 7.42 | Total Number of Diarrhea Times Six Hours after Administration (mice [3]; Table 11: 30 μg/kg + Loperamide Hydrochloride + Castor Oil): 6.50 ± 5.88 | Total Number of Diarrhea Times Six Hours after Administration (mice [3]; Table 11: 100 μg/kg + Loperamide Hydrochloride + Castor Oil): 12.13 ± 5.67 | Total Number of Diarrhea Times Six Hours after Administration (mice [3]; [7]): 18.25 ± 3.99 | EC50 for antagonizing the antidiarrheal effect of loperamide hydrochloride (mice [3]; dose-response in mice, Table 11 and FIG. 1): ~0.086 mg/kg

C=CCN1CC[C@]23c4c5ccc(O)c4O[C@H]2[C@@H](OCCOCCOCCOCCOCCOCCOCCOCCOC)CC[C@@]3(O)[C@H]1C5 [Nal049, mPEG8-(6-α-naloxol)-ether]
IC50 [1]: 1050 nM | inhibition at 10 µM [1]: 94.3 ± 5.39% | Average Pain Threshold before Administration (s) Mean ± SD (mice [2]; 4 μmol/kg + Morphine group): 14.00 ± 7.09 s | Percentage of Increase in Pain Threshold (mice [2]; 4 μmol/kg + morphine): 125.93% | Average Pain Threshold after Administration (s) Mean ± SD (mice [2]; [5]): 31.63 ± 10.04 s | Average Pain Threshold before Administration (s) Mean ± SD (mice [2]; 20 μmol/kg + Morphine group): 13.5 ± 5.07 s | Percentage of Increase in Pain Threshold (mice [2]; 20 μmol/kg + morphine): 91.70% | Average Pain Threshold after Administration (s) Mean ± SD (mice [2]; [6]): 25.88 ± 7.64 s | Passage through the blood-brain barrier (concluded from antagonism of the analgesic effect of morphine) (mice [2]): cannot pass through the blood-brain barrier

Oc1ccc2c3c1O[C@H]1[C@H](OCCOCCOCCOCCOCCOCCO[C@@H]4CC[C@@]5(O)[C@H]6Cc7ccc(O)c8c7[C@@]5(CCN6CC5CC5)[C@H]4O8)CC[C@@]4(O)[C@@H](C2)N(CC2CC2)CC[C@]314 [Nal026, PEG6-(6-β-naltrexol)2-ether]
IC50 [1]: 183 nM | inhibition at 10 µM [1]: 100.5 ± 0.26%

Oc1ccc2c3c1O[C@H]1[C@@H](OCCOCCOCCOCCO[C@H]4CC[C@@]5(O)[C@H]6Cc7ccc(O)c8c7[C@@]5(CCN6CC5CC5)[C@H]4O8)CC[C@@]4(O)[C@@H](C2)N(CC2CC2)CC[C@]314 [Nal021, PEG4-(6-α-naltrexol)2-ether]
IC50 [1]: 229 nM | inhibition at 10 µM [1]: 100.3 ± 0.56% | Average Pain Threshold before Administration (s) Mean ± SD (mice [2]; 4.36 μmol/kg + Morphine group): 20.63 ± 7.07 s | Percentage of Increase in Pain Threshold (mice [2]; 4.36 μmol/kg + morphine): 172.66% | Average Pain Threshold after Administration (s) Mean ± SD (mice [2]; 4.36 μmol/kg subcutaneous + Morphine by gavage): 56.25 ± 10.61 s | Average Pain Threshold before Administration (s) Mean ± SD (mice [2]; 21.8 μmol/kg + Morphine group): 18.63 ± 4.60 s | Percentage of Increase in Pain Threshold (mice [2]; 21.8 μmol/kg + morphine): 220.72% | Average Pain Threshold after Administration (s) Mean ± SD (mice [2]; 21.8 μmol/kg subcutaneous + Morphine by gavage): 59.75 ± 0.71 s | Passage through the blood-brain barrier (concluded from antagonism of the analgesic effect of morphine) (mice [2]): cannot pass through the blood-brain barrier

COCCOCCOCCOCCOCCOCCO[C@H]1CC[C@@]2(O)[C@H]3Cc4ccc(O)c5c4[C@@]2(CCN3CC2CC2)[C@H]1O5 [Nal037, mPEG6-(6-α-naltrexol)-ether]
IC50 [1]: 225 nM | inhibition at 10 µM [1]: 100.6 ± 0.34% | Average Pain Threshold before Administration (s) Mean ± SD (mice [2]; 4 μmol/kg + Morphine group): 19.38 ± 5.21 s | Percentage of Increase in Pain Threshold (mice [2]; 4 μmol/kg + morphine): 62.54% | Average Pain Threshold after Administration (s) Mean ± SD (mice [2]; [5]): 31.50 ± 11.83 s | Average Pain Threshold before Administration (s) Mean ± SD (mice [2]; 20 μmol/kg + Morphine group): 20.5 ± 3.93 s | Percentage of Increase in Pain Threshold (mice [2]; 20 μmol/kg + morphine): 1.85% | Average Pain Threshold after Administration (s) Mean ± SD (mice [2]; [6]): 20.88 ± 5.87 s | Difference between the pain threshold before and after administration (significance) (mice [2]): not significant | Passage through the blood-brain barrier (concluded from antagonism of the analgesic effect of morphine) (mice [2]): can pass through the blood-brain barrier

CN1CC[C@]23c4c5ccc(O)c4O[C@H]2[C@@H](O)C=C[C@H]3[C@H]1C5 [Morphine, morphine, reference compound]
Average Pain Threshold after Administration (s) Mean ± SD (mice [2]; morphine control group, cut-off 60 s): 53.25 ± 10.96 s and 52.00 ± 9.67 s and 38.5 ± 15.58 s and 39.00 ± 17.25 s | Average Pain Threshold before Administration (s) Mean ± SD (mice [2]; morphine control group, hot plate 55 °C): 19.25 ± 5.57 s and 20.38 ± 3.93 s and 20.88 ± 4.91 s and 15.12 ± 6.38 s

C=CCN1CCC23c4c5ccc(O)c4OC2C(OCCOCCOCCOCCOCCOCCOC)CCC3(O)C1C5 (stereo not drawn) [Nal046, mPEG6-(6-β-naloxol)-ether]
IC50 ([4]; CHO-K1/Gα15/OPRM1 cells, inhibitor detection against EC80 positive agonist, RFU): 3840 nM | Inhibition rate (%) of highest concentration (mean ± standard deviation) (N = 2) ([4]; highest concentration 10000 nM): 79.55 ± 5.73%
